Measurements: patent US20130089601A1, “METHOD FOR TREATING ATHEROSCLEROSIS” (KAOHSIUNG MEDICAL UNIVERSITY, priority 2009, published 2013)

How the values were obtained:
endogenous microRNA-195 = assay: Endogenous microRNA-195 in VSMC by quantitative real-time PCR, normalized to U44; type: cell-based, human; details: ox-LDL and simvastatin 1 nM for 24 hours
Method: Quantitative real-time PCR was performed in an ABI PRIZM 7500 sequence detection system in triplicates. The typical amplification program was carried out in a 20 μl reaction with a primer at a final concentration of 300 nM and probes of 200 nM. Serial dilutions of the control cDNA for generating standard curves ran in duplicate. Real-time PCR results were analyzed using ABI PRISM 7500 SDS software. Relative differences of microRNAs were quantified using the […] method. For graphical presentation, the 2^−ΔΔCt transformation was used according to the ABI user bulletin version #2. Expression values were depicted relatively to the value at baseline which was the earliest time point present in all the experiments.

VSMC cells = assay: Chemotactic migration of VSMC (Transwell); type: cell-based, human; details: 100 nM for 24 hours, ox-LDL 40 μg/ml
Method: Chemotactic migration is another characteristic of atherosclerosis and can be used as another line of evidence of atherosclerotic change for the cultured VSMC cells. This experiment was assayed by using a microchemotactic chamber and polycarbonate filters with pores of […] in diameter (Transwell, Millipore). After incubated with microRNA-195 (Pre-miR miRNA, hsa-miR-195 (product ID PM10827), Ambion Inc.) (100 nM) or an inhibitor (100 nM) for 24 hours, the VSMC cells were trypsinized and suspended with a serum free medium. A volume (300 μl) of a 1×10^4 cell suspension was placed in the upper chamber, the medium containing ox-LDL (40 μg/ml, each) was placed in the lower and upper chamber. The cell suspension was incubated at a temperature of 37° C. under 5% CO2 in air for 24 hours. After incubation, the VSMC cells on the upper side of the filter were scraped off, and the cells that had directly migrated to the lower side of the filter were trypsinized. The cells were fixed with methanol and stained with a Giemsa solution (Merck). Quantification of chemotactic migration was performed using the hemocytometer.

Compound | endogenous microRNA-195 decrease versus ox-LDL-stimulated cells (endogenous microRNA-195) [fold] | chemotactic migration, percentage of migrated cells compared to control medium cells (VSMC cells) [%]
CCC(C)(C)C(=O)O[C@H]1C[C@@H](C)C=C2C=C[C@H](C)[C@H](CC[C@@H]3C[C@@H](O)CC(=O)O3)[C@H]21 [simvastatin] | > 0.68 | 
microRNA-195 inhibitor: 5′-GCCAATATTTCTGTGCTGCTA-3′ (SEQ ID NO: 6), Ambion; used to specifically bind to and inhibit endogenous microRNA-195 (listed as DNA, chemistry not given here) [reference compound] |  | 233.7
